According to US8729047B2, “Compositions for inhibiting redox-sensitive GTPases” (Board of Regents, The University of Texas System, priority 2010, dated 2014):
Where two headings read alike, the source gives them in different places.

Legend:
HME-RhoC cells = experiment: MTT cell viability and caspase-3/8 assays; format: cell-based, human
From the text: FIG. 25. […] (B) Caspase-3/8 assay: the apoptotic activity of sample cells treated with the apoptotic inducer was set to be 100%, and other results were then expressed as normalized values against the mean value associated with the treatment with the apoptotic inducer. For both (A) and (B), all values represent the mean values and standard error values from triplicate measurements.

MLC = MLC phosphorylation in A7r5 cells; format: cell-based, rat
Protocol: FIG. 20. Determination of RhoA activity and MLC phosphorylation. […] Cell lysates in a buffer containing 1% NP-40, 10 mM EDTA, and 20 mM TrisHCl (pH 7.4) were centrifuged (50,000×g, 20 min) to remove solid matter. (A) The soluble cell extract was then used to perform Western blot analyses for RhoA and the MLC. This cell extract also was used for the co-IP-based ESI-MS analysis (FIG. 6). (B) A RhoA activity assay was colorimetrically determined using cell extract; the assay was performed with the RhoA G-LISA Activation Assay Kit (Cat. No. BK124) (Denver, Colo.). To examine the level of phosphorylation of the MLC, cells were cultured with ˜5 μCi of ^32P in 1 mL of phosphate-free DMEM. The collected cell extract was nutated with resin coupled with a macrophage myosin II antibody at 4° C. for 5 h. Resin was collected by centrifugation, and proteins bound to the resin were washed and eluted with a buffer (80° C.) containing […], 5 mM DTT, and 10 mM TrisHCl (pH 6.8). The immunoprecipitates were then analyzed by SDS-PAGE and autoradiographed. The values of RhoA activity and the MLC phosphorylation determined from untreated cells were set at 100%. […] The data represented in the figure represent the mean values of triplicate measurements, and the vertical error bar indicates standard errors.

ERM = ERM phosphorylation in activated T cells; format: cell-based
Protocol: FIG. 26. Determination of Rac1 activity and ERM phosphorylation. […] (A) The soluble cell extract was then used to perform Western blot analyses for Rac1 and the ERM. This cell extract also was used for the co-IP-based ESI-MS analysis (FIG. 8). (B) A Rac1 activity assay was colorimetrically determined using cell extract; the assay was performed with the Rac1 G-LISA Activation Assay Kit (Cat. No. BK125) (Denver, Colo.). To examine the level of phosphorylation of the ERM, cells were cultured in complete RPMI 1640 medium with ˜50 μCi of ^32P/mL before initiating stimulation of T cells. The collected cell extract was nutated with resin coupled with a human ERM (231C2a) antibody (Santa Cruz Biotechnology, CA) at 4° C. for 5 h. […] The immunoprecipitates were then analyzed by SDS-PAGE and autoradiographed. […] The data represented in the figure represent the mean values of triplicate measurements, and the vertical error bar indicates standard errors.

RhoC = RhoC (Homo sapiens, UniProt P08134); experiment: Guanine nucleotide exchange of [3H]GDP-loaded GTPase with 6-TGDP (FIG. 13A); format: binding; design: made in house; host or cells: E. coli
RhoC, sequence (P08134 whole entry): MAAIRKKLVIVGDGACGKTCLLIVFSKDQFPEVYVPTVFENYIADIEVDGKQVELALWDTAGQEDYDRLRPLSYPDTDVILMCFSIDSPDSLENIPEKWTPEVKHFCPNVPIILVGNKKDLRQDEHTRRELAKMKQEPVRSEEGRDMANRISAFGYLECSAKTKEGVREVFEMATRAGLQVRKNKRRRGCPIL
Protocol: FIG. 13. Guanine nucleotide exchange of small GTPases with 6-TGDP. (A) To monitor 6-TGDP-mediated GTPase GDP dissociation, [^3H]GDP-loaded GTPase (1 μM) was incubated with 6-TGDP (0-2000 μM) for 1 h. (B) To monitor GTPase 6-TGDP dissociation by GDP (0-2000 μM) in the presence and absence of dithiothreitol (DTT), 6-TGDP-loaded GTPase (˜1 μM) was treated with .NO2 (˜3 μM) under anaerobic conditions and was incubated with various concentrations of [^3H]GDP (0-2000 μM) in the presence and absence of DTT (10 mM) for 1 h. For all assays, aliquots were withdrawn and spotted onto nitrocellulose filters. The filters were then washed three times with an assay buffer, and radioactivity was determined using a Beckman-Coulter scintillation counter. The resultant radioactivity (dpm) values associated with GTPase-bound [^3H]GDP were converted into the fraction of mol nucleotide per mol total GTPase. The data presented represent mean and standard error values from triplicate measurements. The apparent dissociation constants (appKD values) of GTPase 6-TGDP association ([^3H]GDP dissociation, A); and 6-TGDP dissociation ([3H]GDP association, B) were obtained by fitting the data to a simple dissociation and association, respectively. (A) The ^appKD values of Ras, RhoC, RhoA and Rac1 for 6-TGDP, are, respectively, 2300, 230, 224, and 245 μM [6-TGDP]. (B) The appKD values of RhoC with and without DTT are, respectively, 560, and 1000 μM [[^3H]GDP], whereas the ^appKD values of Ras with and without DTT are 530, and 520 μM [[^3H]GDP], respectively. The standard errors of each ^appKD value are less than 10% of their given values, and regression values associated with the fit were r^2>0.9560.
A kinetic assay method using radiolabeled GDP ([^3H]GDP) was established. The apparent dissociation constants (^appKD 6-TGDP) of Rho GTPases (including RhoA, Cdc42, and Rac1/2/3) and Ras with 6-TGDP were determined (FIG. 13). The results of this preliminary kinetic study provided strong support for the mechanism proposed for the role of 6-TGNP in RhoC inactivation (FIG. 7).
The true dissociation constant (^trueKD 6-TGDP) of Ras, RhoC, RhoA and Rac1 for 6-TGDP was then calculated to be ˜20.7 pM, 212 μM, 208 μM, and 158 μM [6-TGDP] by using a compensation equation, ^trueKD 6-TGDP=^appKD 6-TGDP/(1+[GDP]/^trueKD GDP) (95), in conjunction with the values given [(^appKD 6-TGDP of Ras, RhoC, RhoA, and Rac1=2300, 230, 224, and 245 μM (FIG. 13) and ^trueKD GDP=9 pM, 12 μM, 13 μM and 1.8 μM, respectively. The ^trueKD GDP of Ras, RhoA and Rac1 was determined previously (Lenzen et al. Biochemistry 37, 7420-7430 (1998); Heo et al. Biochemistry 44, 6573-6585 (2005)) and the ^trueKD GDP of RhoC was further determined. Example: ^trueKD 6-TGDP for Ras=2300 μM/(1+1 μM GDP/[…])=[…] [6-TGDP]].

Nc1nc2nc[nH]c2c(=S)[nH]1 [6-TG, 6-thioguanine] was tested, and the “apoptotic effect (caspase, FIG. 25B)” value (HME-RhoC cells; 6-TG) was “minimal”, the “viability and caspase activity” value (HME-RhoC cells; 6-TG and DETA/NO, FIG. 25) was “minimally affected” and the “cell viability (MTT, FIG. 25A)” value (HME-RhoC cells; 6-TG for 3 days) was “minimally affected”. For the same molecule, the “dephosphorylated form of the MLC” value (MLC; 6-TG plus DETA/NO 10 μM, FIG. 20B) was “synergistically increases”, the MLC dephosphorylation (MLC; 6-TG, after 3 days, FIG. 20B) was “large portion of the MLC in A7r5 cells was observed to have been dephosphorylated” and the “blockage of ERM dephosphorylation” value (ERM; 6-TG plus DETA/NO 10 μM) was “increases the blockage of the dephosphorylated form of ERM”. The ERM phosphorylation (ERM; 6-TG, after three days, FIG. 26B) was “large portion of ERM in T cells was observed to have been phosphorylated”.

Molecule Nc1nc2c(ncn2[C@@H]2O[C@H](COP(=O)(O)OP(=O)(O)O)[C@@H](O)[C@H]2O)c(=S)[nH]1 [6-TGDP, 6-thioguanosine diphosphate] has a Kd (RhoC; [3H]GDP-loaded GTPase 1 μM, 6-TGDP 0-2000 μM, 1 h, FIG. 13A, read-out: appKD for 6-TGDP) of 230 µM and a Kd (RhoC; calculated by compensation equation from appKD 6-TGDP and trueKD GDP, read-out: trueKD 6-TGDP) of 212 µM.

For Nc1nc2[nH]c(S)nc2c(=O)[nH]1 [8-TG, 2-amino-8-mercapto-1H-purin-6(9H)-one], the “viability of cells treated with 8-TG-redox agent” value (HME-RhoC cells; 8-TG for a week followed by NO donor) was “almost the same as that of the untreated HME-RhoC cells”, the “screen of 6-TP isomers on MLC phosphorylation” value (MLC; not shown) was “dephosphorylates the MLC” and the “screen of 6-TP isomers on ERM dephosphorylation” value (ERM; not shown) was “blocks the dephosphorylation of ERM”.

With Nc1nc2c(ncn2[C@@H]2O[C@H](COP(=O)(O)OP(=O)(O)O)[C@@H](O)[C@H]2O)c(=O)[nH]1 [GDP] the Kd (RhoC; further determined (Example 2), read-out: trueKD GDP) was 12 µM.
